Patent US20090084024A1, “TRAP OR DISPENSER” (EXOSECT LIMITED, priority 2006, published 2009)

Legend:
[1] = Pheromone content of carnauba wax cubes after manufacture and 1 month storage (Soxhlet extraction, Gas Chromatography); type: physicochemical; conditions: 12 mm carnauba wax cubes with 5 mg codlemone
Description: Carnauba wax was melted in a pan on a hot plate at 105° C. and was poured into […] mould blocks. Theses were allowed to cool and were weighed, giving an average of 1.4 g per block. From this, it was calculated that 50 mg of codlemone should be added to every 14 g of molten carnauba wax to make ten […] cubes each containing 5 mg. These cubes were made using technical grade 99% pure Codlemone (E,E)-8,10-Dodecadien-1-ol (E8E10-120H) sourced from Bedoukian Research Inc., Danbury, Conn., US and the cubes were then cooled and stored in heat sealed aluminum sachets in a freezer for 1 month. They were then removed from the freezer and the pheromone was extracted from each cube by Soxhlet extraction with ethanol and analyzed by Gas Chromatography.

[2] = Release from two phase 100% carnauba wax lures in Eppendorf tubes (entrainment system, GC/GC-MS, wind tunnel ageing); type: physicochemical; conditions: two-layer carnauba wax; wind tunnel 5 km/h, 27° C.; retested over 20 days; FIG. 1
Description: In this experiment Eppendorf tubes were filled with two layers of molten carnauba wax containing different concentrations of Codlemone (E,E)-8,10-Dodecadien-1-ol (E8E10-120H). […] In the lower part of the tube, 0.75 cm^3 of molten carnauba wax containing 5 mg of codlemone and the above compounds was poured in and allowed to solidify. The next step was to add a 0.25 cm^3 cap of molten carnauba wax with 1 mg of codlemone and the above compounds to the top of the solid wax. The concept behind this experiment was that the upper layer would reduce the initial surge of pheromone that is an unwanted characteristic of all known lures when opened for the first time. The hope was that by putting a low dose in the upper layer, the initial surge would be smaller and as the pheromone in this low dose layer disappeared it would be replaced by a steady flow of pheromone permeating through it from the higher concentration layer beneath.
The lures were formulated and immediately frozen and stored in impermeable aluminum sachets until they were placed into an entrainment system comprising a sealed glass sample chamber and an adsorbent tube filled with Porapak Q, obtained from Supelco, Bellefonte, Pa. Semiochemical(s) released over 2-hour intervals were transferred to the adsorbent by use of a vacuum pump, and eluted for GC/GC-MS analysis using dichloromethane. […]

| SMILES | lost during manufacturing, storage for 1 month and analysis [1] [%] | initial loading remaining in the cubes ([1]; average, stored in heat sealed aluminum sachets in a freezer for 1 month) [%] | release rate of compounds from the Eppendorf wax lures [2] |
| --- | --- | --- | --- |
| C/C=C/C=C/CCCCCCCO [Codlemone, (E,E)-8,10-Dodecadien-1-ol] | 2.5 | 97.5 |  |
| CCCCCCCCCCCCC [Tridecane (13:HC), Tridecane] |  |  | releases much more quickly than Decyl Acetate (10:Ac) |
